According to patent publication US7129258B2, “Substituted benzoxazoles as estrogenic agents” (priority 2001, dated 2006):
Where “and” joins values, the source holds several entries; their conditions need not be identical. Equal entries are not always repeated. Marks after values point to notes of the source that are not given here.

Columns and labels:
[1] = system: casein kinase II mRNA in mammary fat pad; assay: Mammary end bud test procedure (rat mammotrophic assay); format: in vivo
Experimental: Evaluation in the Mammary End Bud Test Procedure
Estrogens are required for full ductal elongation and branching of the mammary ducts, and the subsequent development of lobulo-alveolar end buds under the influence of progesterone. In this test procedure, the mammotrophic activity of selected compounds of the invention was evaluated according to the following standard pharmacological test procedure. Twenty-eight day old Sprague-Dawley rats (Taconic Farms) were ovariectomized and rested for nine days. Animals were housed under a 12-hour light/dark cycle, fed a casein-based Purina Laboratory Rodent Diet 5K96 (Purina, Richmond, Ind.) and allowed free access to water. […] The following results were obtained for representative compounds of the invention (Table (8)).

[2] = system: HLA-B27 rats; assay: HLA rat test procedure for inflammatory bowel disease (stool score 3 = diarrhea, 2 = soft stool, 1 = normal stool; colon histology); format: in vivo
[3] = system: Lewis rats, Freund's Adjuvant-Complete induced arthritis; assay: Lewis rat adjuvant-induced arthritis, inhibition test procedure; format: in vivo; details: Inhibition protocol, s.c. daily from Day 1
[4] = system: Lewis rats, Freund's Adjuvant-Complete induced arthritis; assay: Lewis rat adjuvant-induced arthritis, treatment test procedure; format: in vivo; details: Treatment protocol, s.c. daily, begun Day 8 after adjuvant injection
[5] = system: human endometrial tissue implanted into ovariectomized athymic nude mice; assay: Endometriosis test procedure; format: in vivo, mouse; details: 10 mg/kg oral daily
Experimental: Evaluation in an Endometriosis Standard Pharmacologic Test Procedure This procedure is slightly modified from a published method [Bruner-Tran. et al., Journal of Clinical Investigation 99: 2851–2857. (1997)]. […] Lesions are allowed to establish for at least 10 days, then oral daily dosing begins and continues for at least 15 days. It should be noted that all mice have visible lesions at the start of dosing. At necropsy the number of mice with lesions is determined as well as the lesions per mouse.

[6] = system: Sexually immature 129 SvE mice (uterine weight); assay: Mouse uterotrophic test procedure (Procedure 2); format: in vivo; details: 50 mg/kg s.c., days 22-25
[7] = system: ovariectomized Sprague-Dawley rats (proximal tibia); assay: Bone mineral density in the ovariectomized rat; format: in vivo; details: 5 weeks
[8] = system: Sexually immature Sprague-Dawley rats (uterine weight); assay: Rat uterotrophic test procedure (Procedure 1); format: in vivo; details: 0.06 μg/rat s.c., days 19-21, alone
[9] = system: morphine-addicted rats; assay: Rat hot flush test procedure (tail skin temperature after naloxone); format: in vivo; details: 0.3 mg/kg
Description: Rat Hot Flush Test Procedure
The effect of test compounds on hot flushes can be evaluated in a standard pharmacological test procedure which measures the ability of a test compound to blunt the increase in tail skin temperature which occurs as morphine-addicted rats are acutely withdrawn from the drug using naloxone [Merchenthaler, et al., Maturitas 30: 307–16 (1998)]. It can also be used to detect estrogen receptor antagonist activity by co-dosing test compound with the reference estrogen. The following data were obtained from representative compounds of the invention (Table (7))

[10] = Study C colon histology, oral 7 weeks, 10 mg/kg days 1–24 then 20 mg/kg, mean ± SD
[11] = Study B colon histology, oral 4 weeks, 10 mg/kg days 1–14 then 20 mg/kg, mean ± SD
[12] = Study C colon histology, oral 7 weeks, 10 mg/kg days 1–18 then 20 mg/kg, mean ± SD

Structure (SMILES): C=Cc1cc(O)cc2nc(-c3ccc(O)c(F)c3)oc12 [Example 24, 2-(3-Fluoro-4-hydroxyphenyl)-7-vinyl-1,3-benzoxazol-5-ol]
- Casein kinase II mRNA/18 S rRNA (mean ± SEM) ([1]; 20 mg/kg s.c. + Progesterone (30 mg/kg)): 3.98 ± 0.79
- Stool quality (in words) ([2]; Study A, 50 mg/kg s.c. once per day): improved
- Fibrosis (0–2) [2, 10]: 0*
- Inflammation (0–3) [2, 10]: 0.69 ± 0.24
- Lesion depth (0–2) [2, 10]: 0*
- Total score [2, 10]: 0.69 ± 0.24
- Ulceration (0–2) [2, 10]: 0*
- total disease score, intestinal histology (in words) ([2]; Study C, oral, 10 mg/kg days 1–24 then 20 mg/kg): significantly reduced
- measurements of tissue injury, colon histology (in words) ([2]; composite of two subcutaneous dosing studies, including Study A): effective in reducing several measurements of tissue injury
- Joint inflammation score (maximal score per day 12) ([3]; Day 1): 0.00
- Joint inflammation score (maximal score per day 12) ([3]; Day 2): 1.00
- Joint inflammation score (maximal score per day 12) ([3]; Day 3): 4.50
- Joint inflammation score (maximal score per day 12) ([3]; Day 15): 3.00
- Joint inflammation score (maximal score per day 12) ([3]; Day 17): 1.50
- Joint inflammation score (maximal score per day 12) ([4]; Day 4): 9.50
- Joint inflammation score (maximal score per day 12) ([4]; Day 5): 8.00
- Joint inflammation score (maximal score per day 12) ([4]; Day 6): 7.00
- Joint inflammation score (maximal score per day 12) ([4]; Day 9): 3.50
- Joint inflammation score (maximal score per day 12) ([4]; Day 17): 2.00
- lesions at necropsy compared with mice dosed with vehicle ([5]; evaluated three times): fewer lesions
- lesions found per animal (mice with lesions) ([5]; Study 1): one
- mice with lesion regression ([5]; Study 1): four of six
- mice with any lesions at necropsy ([5]; Study 1, all mice had lesions at start of dosing): two of six

Structure (SMILES): C[C@]12CC[C@@H]3c4ccc(O)cc4CC[C@H]3[C@@H]1CC[C@@H]2O [17β-estradiol]
- mean uterine weight ± SEM [6]: 41.9 ± 2.9 mg and 40.0 ± 2.0 mg and 35.6 ± 4.4 mg and 40.5 ± 5.84 mg and 42.9 ± 4.8 mg and 41.7 ± 3.6 mg
- Total Bone Mineral Density (mean ± SEM) ([7]; 2 μg/rat s.c.): 639.49 ± 14.47 mg/mL
- Trabecular Bone Mineral Density (mean ± SEM) ([7]; 2 μg/rat s.c.): 453.28 ± 24.93 mg/mL
- Casein kinase II mRNA/18 S rRNA (mean ± SEM) ([1]; 0.1 mg/kg s.c. + Progesterone (30 mg/kg)): 39.0 ± 5.36

Structure (SMILES): C=Cc1cc(O)cc2nc(-c3ccc(O)cc3F)oc12 [Example 25, 2-(2-Fluoro-4-hydroxyphenyl)-7-vinyl-1,3-benzoxazol-5-ol]
- Fibrosis (0–2) [2, 11]: 0.31 ± .13
- Inflammation (0–3) [2, 11]: 1.50 ± 0.35
- Lesion depth (0–2) [2, 11]: 0.44 ± 0.24
- Ulceration (0–2) [2, 11]: 0.44 ± 0.24

Structure (SMILES): C=Cc1cc(O)cc2nc(-c3ccc(O)cc3)oc12 [Example 27, 2-(4-Hydroxyphenyl)-7-vinyl-1,3-benzoxazol-5-ol]
- Joint inflammation score (maximal score per day 12) ([4]; Day 8): 5.00
- Joint inflammation score (maximal score per day 12) ([4]; Day 15): 2.00
- Joint inflammation score (maximal score per day 12) ([4]; Day 16): 2.00
- Joint inflammation score (maximal score per day 12) ([4]; Day 17): 1.50

Structure (SMILES): C=C(Br)c1cc(O)cc2nc(-c3ccc(O)cc3F)oc12 [Example 32, 7-(1-Bromovinyl)-2-(2-fluoro-4-hydroxyphenyl)-1,3-benzoxazol-5-ol]
- Joint inflammation score (maximal score per day 12) ([4]; Day 1): 11.33
- Joint inflammation score (maximal score per day 12) ([4]; Day 2): 10.83
- Joint inflammation score (maximal score per day 12) ([4]; Day 3): 9.33
- Joint inflammation score (maximal score per day 12) ([4]; Day 4): 8.00
- Joint inflammation score (maximal score per day 12) ([4]; Day 5): 5.83
- Joint inflammation score (maximal score per day 12) ([4]; Day 6): 3.33
- Joint inflammation score (maximal score per day 12) ([4]; Day 7): 3.00
- Joint inflammation score (maximal score per day 12) ([4]; Day 8): 2.50
- Joint inflammation score (maximal score per day 12) ([4]; Day 9): 2.50
- Joint inflammation score (maximal score per day 12) ([4]; Day 10): 2.50
- Joint inflammation score (maximal score per day 12) ([4]; Day 11): 2.50
- Joint inflammation score (maximal score per day 12) ([4]; Day 12): 2.50
- Joint inflammation score (maximal score per day 12) ([4]; Day 13): 2.50
- Joint inflammation score (maximal score per day 12) ([4]; Day 14): 2.50
- Joint inflammation score (maximal score per day 12) ([4]; Day 15): 2.00
- Joint inflammation score (maximal score per day 12) ([4]; Day 16): 1.33
- Joint inflammation score (maximal score per day 12) ([4]; Day 17): 1.00

Structure (SMILES): C#C[C@]1(O)CC[C@H]2[C@@H]3CCc4cc(O)ccc4[C@H]3CC[C@@]21C [17α-ethinyl, 17β-estradiol, 17α-ethinyl-17β-estradiol]
- mean uterine weight ± SEM [8]: 104.7 ± 5.4 mg and 85.5 ± 3.1 mg
- Temperature change 15 minutes after naloxone injection (mean ± SEM) [9]: 2.12 ± 1.14

Structure (SMILES): Oc1cc(Br)c2oc(-c3ccc(O)c(F)c3)nc2c1 [Example 21, 7-Bromo-2-(3-fluoro-4-hydroxyphenyl)-1,3-benzoxazol-5-ol]
- Total Bone Mineral Density (mean ± SEM) ([7]; 10 mg/kg s.c.): 501.40 ± 11.97 mg/mL
- Trabecular Bone Mineral Density (mean ± SEM) ([7]; 10 mg/kg s.c.): 312.34 ± 19.73 mg/mL
- Fibrosis (0–2) [2, 12]: 0.56 ± 0.32
- Lesion depth (0–2) [2, 12]: 0.75 ± 0.50
- Ulceration (0–2) ([2]; Study C colon histology, oral 7 weeks, 10 mg/kg then 20 mg/kg, mean ± SD): 0.81 ± 0.47
- scores on all disease parameters vs vehicle-treated rats (in words) ([2]; Study C, oral, 10 mg/kg then 20 mg/kg): not statistically significant, were lower
